Source: patent US9066922B2, “Pharmaceutical composition for the treatment or prevention of diseases involving obesity, diabetes, metabolic syndrome, neuro-degenerative diseases and mitochondria dysfunction diseases” (MD BIOALPHA CO., LTD., priority 2005, dated 2015)

What was measured:
[1] = tested on: C57BL/6JL Lep ob/Lep ob mice; experiment: Weight loss effects in obese mice (ob/ob): body weight; type: in vivo; conditions: 100 mg/kg for 26 days
Description: 10-week-old C57BL/6JL Lep ob/Lep ob male mice having obesity characteristics and predisposition were purchased from Daehan Biolink Co., Ltd. (Chungchongbuk-do, Korea). Animals were raised in a breeding room maintained at a temperature of 23 C, 55% humidity, illumination of 300 to 500 lux, a 12-h light/dark (L/D) cycle, and ventilation of 10 to 18 times/hr. Animals were fed ad libitum pellets of Purina Rodent Laboratory Chow 5001 (purchased from Purina Mills Inc., St. Louis, Mo., USA) as a solid feed for experimental animals and tap water as drinking water. Mice were allowed to acclimate to new environment of the breeding room for two weeks and were then administered some pyrano-o-naphthoquinone and furano-o-naphthoquinone derivatives synthesized according to the present invention at doses of 100 mg/kg for 26 days. Observation was made on changes in body weight, blood glucose and dietary intake, with respect to a time course of administration. After administration was complete, Computed Tomography (CT) was performed to confirm changes in adipose tissue distribution of animals, changes in fat distribution of tissues in various organs, changes in sizes of adipocytes, and changes in glucose, lipid and enzyme levels in blood and liver.

AMPK = experiment: Determination of AMPK activation in C2C12 myoblast cells (SAMS peptide, [γ-32P]ATP); type: cell-based; conditions: differentiated C2C12 myoblast cells, 5 μg/ml, compared with control (DMSO 0.5% = 1)
Protocol: Myoblast cells, C2C12, were cultured in DMEM containing 10% bovine calf serum. When a cell density reached a range of about 85% to 90%, the culture medium was replaced with a medium containing 1% bovine calf serum to induce differentiation of cells. The thus-differentiated myoblast cells were treated with samples synthesized in Examples 1 through 29 at a concentration of 5 μg/ml, and compared with a control group. Enzymatic activity of AMPK was determined as follows. Firstly, C2C12 cells were lysed to obtain protein extracts and then ammonium sulfate was added to a final concentration of 30%, thereby precipitating proteins. Protein precipitates were dissolved in a buffer (62.5 mM Hepes, pH 7.2, 62.5 mM NaCl, 62.5 mM NaF, 1.25 mM Na pyrophosphate, 1.25 mM EDTA, 1 mM DTT, 0.1 mM PMSF, and 200 μM AMP). Thereafter, 200 μM SAMS peptide (HMRSAMSGLHLVKRR: the underlined serine residue is a phosphorylation site, as an AMPK phosphorylation site of acetyl-CoA carboxylase) and [γ-32P]ATP were added thereto and reactants were reacted for 10 minutes at 30° C. This was followed by spotting of the resulting reaction solution on p81 phosphocellulose paper. The p81 paper was washed with a 3% phosphoric acid solution and radioactivity thereof was measured. For each reaction condition, reactions involving no SAMS peptide were also conducted and basic values were subtracted from the thus-observed values.

[2] = tested on: mRNAs for HK2, GLUT2 and GLUT4; experiment: Gene expression of proteins involved in glucose metabolism in DIO mice; type: in vivo, C57BL/6 mice; conditions: 50 mg/kg daily oral, liver and gonadal adipose tissues, vs control group
Protocol: β-lapachone was administered daily to diet-induced obesity (DIO) mice at a dose of 50 mg/kg via an oral route, and levels of mRNAs for hexokinase 2 (HK2) (21,22), glucose transporter (GLUT) 2 and GLUT4 (18,19,20) in the liver and gonadal adipose tissues were confirmed by real-time quantitative PCR. GLUT is well-known as a protein that mediates intracellular uptake and expenditure of blood glucose in organs such as liver, adipocytes and myoblast cells, whereas HK2, an enzyme belonging to a glucokinase class, phosphorylates […] that are thus allowed to enter glycolytic pathways. […] Increased levels of GLUT2 and GLUT4 facilitate intracellular uptake of blood glucose, thus presenting the possibility of β-lapachone as an anti-diabetic drug.

UCP 1 & 2 genes = experiment: Expression of transcripts of UCP1 and UCP2 genes in DIO mice; type: in vivo, C57BL/6 mice; conditions: 50 mg/kg daily oral, liver and gonadal adipose tissues
Protocol: β-lapachone was administered daily to diet-induced obesity (DIO) mice at a dose of 50 mg/kg via an oral route, and levels of transcripts of uncoupling protein 1 & 2 (UCP 1 & 2) genes in the liver and gonadal adipose tissues was measured using real-time quantitative PCR. UCP 1 & 2 are enzymes that perform energy expenditure via heat generation, and it is reported that these enzymes function to consume energy without involving production of reactive oxygen species (ROS) and are also closely correlated with the incidence of obesity (38,39).

DIO C57BL/6 mice = experiment: Spontaneous locomotor activity in DIO C57BL/6 mice; type: in vivo; conditions: 3 hours after administration, measured for 7 hours, vs vehicle and control groups
Protocol: β-lapachone was administered to DIO C57BL/6 mice, and 3 hours later, spontaneous locomotor activity was measured using Versa MAX Activity Monitors & Analyzer (AccuSan Instruments, Columbus, Ohio). The monitor used to measure motion of animals was a 41 cm×41 cm Plexiglas chamber (height: 30 cm) equipped with infrared rays at intervals of 2.5 cm along the x- and y-axes, respectively, whereby 16 scanning lines are respectively arranged on front/rear and right/left sides of the chamber. In order to distinguish between spontaneous locomotor and stereotypic/grooming behavior, animal activity was measured by taking continuous interference of two different scanning lines caused by mice as an effective determination standard. A β-lapachone-administered group, a vehicle-administered group and a control group were respectively placed in each measuring apparatus, and activity and motion of animals were measured for 7 hours. For acclimation of animal to new environment, mice were placed in the apparatus 2 hours prior to measurement.

[3] = tested on: mRNAs of PGC1α, NRF1, mtTFA, COX 4 and 7; experiment: Gene expression of proteins involved in mitochondrial biogenesis in DIO mice; type: in vivo, C57BL/6 mice; conditions: 50 mg/kg daily oral, liver and gonadal adipose tissues, vs control group
Protocol: β-lapachone was administered daily to diet-induced obesity (DIO) mice at a dose of 50 mg/kg via an oral route, and levels of mRNAs of peroxisome proliferator-activated receptor coactivator alpha 1 (PGC1α) (23,24), nuclear respiratory factor 1 (NRF1) (25-27), mitochondrial transcription factor (mtTFA) (25-27), and cytochrome c oxidase (COX) 4 and 7 (28,29) in the liver and gonadal adipose tissues were confirmed by real-time quantitative PCR. Proteins shown in FIG. 10 are representative enzymes responsible for regulation of biogenesis of mitochondria which plays a critical role in biosynthesis of energy in cells, and are also known to be involved in regulation of various physiological events.

In the case of `CC1(C)CCC2=C(O1)c1ccccc1C(=O)C2=O` [Compound 1, β-Lapachone], the “Final BW” value [1] is reported as 46.5 g, the change in vivo at 100 mg/kg ([1]; Mus musculus, 624 h, read-out: Increase in BW) is reported as -16.8% and the AMPK fold (AMPK) is reported as 2.2 fold. For the same compound, the “GLUT2 mRNA expression” value [2] was “significant increases”, the “GLUT4 mRNA expression” value [2] was “significant increases” and the “HK2 mRNA level” value [2] was “decreased”. For the same compound, the “UCP1 mRNA level” value (UCP 1 & 2 genes) was “significant increases in mRNA levels”, the “UCP2 mRNA level” value (UCP 1 & 2 genes) was “significant increases in mRNA levels” and the spontaneous locomotor activity (DIO C57BL/6 mice) was “significant difference in motion and locomotor activity”. For the same compound, the “COX 4 mRNA level” value [3] was “increased levels of mRNAs”, the “COX 7 mRNA level” value [3] was “increased levels of mRNAs” and the “NRF1 mRNA level” value [3] was “increased levels of mRNAs”. The “PGC1α mRNA level” value [3] was “increased levels of mRNAs” and the “mtTFA mRNA level” value [3] was “increased levels of mRNAs”.
